# Laboratory results taken from PubChem BioAssay (NCI).
#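 Five concentrations, 48 hours, 96-well plates. Here, GI50 denotes the concentration required for 50% inhibition of growth. TGI is the concentration that stops growth completely.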
# Assays:
# Experiment in all cases: growth of human tumour cells (NCI), 48 h
# [1] = tested on: 786-0 renal
# [2] = tested on: A498 renal
# [3] = tested on: A549 NSCLC
# [4] = tested on: ACHN renal
# [5] = tested on: BT-549 breast
# [6] = tested on: CAKI-1 renal
# [7] = tested on: CCRF-CEM leukemia
# [8] = tested on: COLO 205 colon
# [9] = tested on: DU-145 prostate
# [10] = tested on: EKVX NSCLC
# [11] = tested on: HCC-2998 colon
# [12] = tested on: HCT-116 colon
# [13] = tested on: HCT-15 colon
# [14] = tested on: HOP-62 NSCLC
# [15] = tested on: HOP-92 NSCLC
# [16] = tested on: HS 578T breast
# [17] = tested on: HT29 colon
# [18] = tested on: IGROV1 ovarian
# [19] = tested on: K-562 leukemia
# [20] = tested on: KM12 colon
# [21] = tested on: LOX IMVI melanoma
# [22] = tested on: MALME-3M melanoma
# [23] = tested on: MCF7 breast
# [24] = tested on: MDA-MB-231 breast
# [25] = tested on: MDA-MB-435
# [26] = tested on: MOLT-4 leukemia
# [27] = tested on: NCI-H226 lung
# [28] = tested on: NCI-H23 lung
# [29] = tested on: NCI-H460 lung
# [30] = tested on: NCI-H522 lung
# [31] = tested on: NCI/ADR-RES ovarian
# [32] = tested on: OVCAR-3 ovarian
# [33] = tested on: OVCAR-4 ovarian
# [34] = tested on: OVCAR-5 ovarian
# [35] = tested on: OVCAR-8 ovarian
# [36] = tested on: PC-3 prostate
# [37] = tested on: RPMI-8226 leukemia
# [38] = tested on: RXF 393 renal
# [39] = tested on: SF-268 CNS
# [40] = tested on: SF-295 CNS
# [41] = tested on: SF-539 CNS
# [42] = tested on: SK-MEL-2 melanoma
# [43] = tested on: SK-MEL-28 melanoma
# [44] = tested on: SK-MEL-5 melanoma
# [45] = tested on: SK-OV-3 ovarian
# [46] = tested on: SN12C renal
# [47] = tested on: SNB-19 CNS
# [48] = tested on: SNB-75 CNS
# [49] = tested on: SR leukemia
# [50] = tested on: SW-620 colon
# [51] = tested on: T-47D breast
# [52] = tested on: TK-10 renal
# [53] = tested on: U251 CNS
# [54] = tested on: UACC-257 melanoma
# [55] = tested on: UACC-62 melanoma
# [56] = tested on: UO-31 renal
compound,measurement,setting,value
COc1cccc(C#Cc2ccccc2C#CCCCCO)c1,GI50,[1],12.8 µM
same,TGI,[1],28 µM
same,GI50,[2],10.3 µM
same,TGI,[2],23.8 µM
same,GI50,[3],4.21 µM
same,TGI,[3],17.3 µM
same,GI50,[4],11.8 µM
same,TGI,[4],25.8 µM
same,GI50,[5],3.07 µM
same,TGI,[5],20.2 µM
same,GI50,[6],6.49 µM
same,TGI,[6],19.9 µM
same,GI50,[7],3.5 µM
same,TGI,[7],17.4 µM
same,GI50,[8],17.9 µM
same,TGI,[8],36.2 µM
same,GI50,[9],4.17 µM
same,TGI,[9],18.9 µM
same,GI50,[10],8.74 µM
same,TGI,[10],24.3 µM
same,GI50,[11],5.95 µM
same,TGI,[11],19.4 µM
same,GI50,[12],12.2 µM
same,TGI,[12],26.4 µM
same,GI50,[13],3.62 µM
same,TGI,[13],17.7 µM
same,GI50,[14],15.5 µM
same,TGI,[14],34.3 µM
same,GI50,[15],2.49 µM
same,TGI,[15],21.7 µM
same,GI50,[16],22.9 µM
same,TGI,[16],56.9 µM
same,GI50,[17],12.1 µM
same,TGI,[17],27.9 µM
same,GI50,[18],10.3 µM
same,TGI,[18],22.6 µM
same,GI50,[19],1.84 µM
same,TGI,[19],85.4 µM
same,GI50,[20],12.4 µM
same,TGI,[20],41.8 µM
same,GI50,[21],6.3 µM
same,TGI,[21],21.2 µM
same,GI50,[22],13.9 µM
same,TGI,[22],37.9 µM
same,GI50,[23],16.1 µM
same,TGI,[23],41.1 µM
same,GI50,[24],3.41 µM
same,TGI,[24],13.2 µM
same,GI50,[25],1.92 µM
same,TGI,[25],8.2 µM
same,GI50,[26],3.82 µM
same,TGI,[26],53.1 µM
same,GI50,[27],15.7 µM
same,TGI,[27],40.5 µM
same,GI50,[28],12.5 µM
same,TGI,[28],26.1 µM
same,GI50,[29],16.1 µM
same,TGI,[29],34 µM
same,GI50,[30],13.3 µM
same,TGI,[30],30 µM
same,GI50,[31],5.44 µM
same,TGI,[31],20 µM
same,GI50,[32],10.7 µM
same,TGI,[32],28.8 µM
same,GI50,[33],20.4 µM
same,TGI,[33],44.2 µM
same,GI50,[34],14.6 µM
same,TGI,[34],29.3 µM
same,GI50,[35],12.5 µM
same,TGI,[35],27.9 µM
same,GI50,[36],9.83 µM
same,TGI,[36],23.7 µM
same,GI50,[37],3.77 µM
same,TGI,[37],26.4 µM
same,GI50,[38],1.78 µM
same,TGI,[38],9.89 µM
same,GI50,[39],16.1 µM
same,TGI,[39],33.5 µM
same,GI50,[40],7.94 µM
same,TGI,[40],22.1 µM
same,GI50,[41],11.5 µM
same,TGI,[41],24.6 µM
same,GI50,[42],20.5 µM
same,TGI,[42],44.8 µM
same,GI50,[43],15.3 µM
same,TGI,[43],30.3 µM
same,GI50,[44],19.1 µM
same,TGI,[44],33.8 µM
same,GI50,[45],17.2 µM
same,TGI,[45],32.5 µM
same,GI50,[46],11.6 µM
same,TGI,[46],27 µM
same,GI50,[47],18.5 µM
same,TGI,[47],35.5 µM
same,GI50,[48],12.8 µM
same,TGI,[48],26.3 µM
same,GI50,[49],1.95 µM
same,TGI,[49],12.1 µM
same,GI50,[50],17.5 µM
same,TGI,[50],35.9 µM
same,GI50,[51],18.5 µM
same,TGI,[51],43.1 µM
same,GI50,[52],13.1 µM
same,TGI,[52],29.6 µM
same,GI50,[53],8.41 µM
same,TGI,[53],22.3 µM
same,GI50,[54],12.5 µM
same,TGI,[54],25.4 µM
same,GI50,[55],5.7 µM
same,TGI,[55],19.8 µM
same,GI50,[56],8.79 µM
same,TGI,[56],22.3 µM
